≈ marks a conversion by molar mass, not a printed value. Where two headings read alike, the source gives them in different places.
Columns and labels:
Type in all cases: cell-based
[1] = tested on: Staphylococcus aureus S13E; test: microbe, parasite or virus in culture
Experimental: (§1) The MIC's in Table II were determined by standard agar-dilution assays. The MIC's in Table III were obtained using a conventional broth-dilution microtiter test.

[2] = tested on: Staphylococcus epidermidis EPI1; test: microbe, parasite or virus in culture; settings: Staphylococcus epidermidis, EPI1
Experimental: as §1

[3] = tested on: Haemophilus influenzae C.L.; test: MIC, standard agar-dilution assay
Experimental: as §1

[4] = tested on: Haemophilus influenzae 76; test: MIC, standard agar-dilution assay
Experimental: as §1

[5] = tested on: Staphylococcus aureus X400; test: MIC, standard agar-dilution assay
Experimental: as §1

[6] = tested on: Pasteurella hemolytica 22C; test: MIC, conventional broth-dilution microtiter test
Experimental: (§2) Certain of the derivatives are active against some gram-negative bacteria, such as Pasteurella species. The MIC's in Table II were determined by standard agar-dilution assays. The MIC's in Table III were obtained using a conventional broth-dilution microtiter test.

Streptococcus sp. 80 = test: MIC, conventional broth-dilution microtiter test; settings: broth-dilution microtiter; Streptococcus sp. 80; read-out: MIC
Experimental: as §2

[7] = tested on: Pasteurella multocida 68C; test: MIC, conventional broth-dilution microtiter test; settings: broth-dilution microtiter; Pasteurella multocida 68C; read-out: MIC
Experimental: as §2

[8] = tested on: Pasteurella multocida 40G; test: MIC, conventional broth-dilution microtiter test; settings: broth-dilution microtiter; Pasteurella multocida 40G; read-out: MIC
Experimental: as §2

[9] = tested on: Pasteurella multocida 22A; test: MIC, conventional broth-dilution microtiter test; settings: broth-dilution microtiter; Pasteurella multocida 22A; read-out: MIC
Experimental: as §2

Mycoplasma hyorhinis = test: MIC, conventional broth-dilution microtiter test; settings: Mycoplasma
Experimental: as §2

[10] = tested on: Mycoplasma gallisepticum 34159; test: MIC, conventional broth-dilution microtiter test; settings: Mycoplasmoides gallisepticum; broth-dilution microtiter; Mycoplasma gallisepticum 34159, Resistant strain; read-out: MIC
Experimental: as §2

Staphylococcus aureus = test: MIC, conventional broth-dilution microtiter test
Experimental: as §2

[11] = tested on: Pasteurella hemolytica 23C; test: MIC, conventional broth-dilution microtiter test
Experimental: as §2

[12] = tested on: Pasteurella multocida 60A; test: MIC, conventional broth-dilution microtiter test; settings: broth-dilution microtiter; Pasteurella multocida 60A, Avian isolate; read-out: MIC
Experimental: as §2

Mycoplasma gallisepticum = test: MIC, conventional broth-dilution microtiter test; settings: Mycoplasmoides gallisepticum
Experimental: as §2

[13] = tested on: Mycoplasma gallisepticum 41313; test: MIC, conventional broth-dilution microtiter test; settings: Mycoplasmoides gallisepticum; broth-dilution microtiter; Mycoplasma gallisepticum 41313, Resistant strain; read-out: MIC
Experimental: as §2

[14] = tested on: Pasteurella hemolytica 41D; test: MIC, conventional broth-dilution microtiter test
Experimental: as §2

[15] = tested on: Pasteurella multocida 17E; test: MIC, conventional broth-dilution microtiter test; settings: broth-dilution microtiter; Pasteurella multocida 17E, Bovine isolate; read-out: MIC
Experimental: as §2

[16] = tested on: Streptococcus Group D X66; test: MIC, standard agar-dilution assay
Experimental: as §2

[17] = tested on: Streptococcus pyogenes C203; test: MIC, standard agar-dilution assay
Experimental: as §2

Escherichia coli EC14 = test: MIC, standard agar-dilution assay
Experimental: as §2

[18] = tested on: Streptococcus pyogenes 9960; test: MIC, standard agar-dilution assay
Experimental: as §2

[19] = tested on: Klebsiella pneumoniae KAE; test: MIC, standard agar-dilution assay; settings: agar-dilution; Klebsiella pneumoniae KAE; read-out: MIC
Experimental: as §2

[20] = tested on: Staphylococcus aureus X1.1; test: MIC, standard agar-dilution assay; settings: Staphylococcus aureus, X1.1
Experimental: as §2

[21] = tested on: Klebsiella pneumoniae X26; test: MIC, standard agar-dilution assay
Experimental: as §2

Escherichia coli TEM = test: MIC, standard agar-dilution assay; settings: agar-dilution; Escherichia coli TEM; read-out: MIC
Experimental: as §2

[22] = tested on: Streptococcus pneumoniae Park I; test: MIC, standard agar-dilution assay; settings: Streptococcus pneumoniae
Experimental: as §2

[23] = tested on: Staphylococcus aureus V41; test: MIC, standard agar-dilution assay; settings: Staphylococcus aureus, V41
Experimental: as §2

[24] = tested on: Staphylococcus epidermidis EPI2; test: MIC, standard agar-dilution assay; settings: Staphylococcus epidermidis, EPI2
Experimental: as §1

[25] = agar-dilution, Haemophilus influenzae C.L., Ampicillin-sensitive strain, read-out: MIC
[26] = agar-dilution, Haemophilus influenzae 76, Ampicillin-resistant strain, read-out: MIC
[27] = agar-dilution, Staphylococcus aureus X400, Methicillin-resistant strain, read-out: MIC
[28] = agar-dilution, Streptococcus Group D X66, read-out: MIC
[29] = agar-dilution, Streptococcus pyogenes C203, read-out: MIC
[30] = agar-dilution, Escherichia coli EC14, read-out: MIC
[31] = agar-dilution, Streptococcus 9960, read-out: MIC
[32] = agar-dilution, Klebsiella pneumoniae X26, read-out: MIC

Structure (SMILES) | MIC [1] | MIC [2] | MIC [3, 25] | MIC [4, 26] | MIC [5, 27] | MIC (Streptococcus sp. 80) | MIC [7] | MIC [8] | MIC [9] | MIC (Mycoplasma hyorhinis) | MIC [10] | MIC (Staphylococcus aureus) | MIC (Escherichia coli EC14; [30]) | MIC [18, 31] | MIC [19] | MIC [20] | MIC (Escherichia coli TEM) | MIC [22] | MIC [23] | MIC [24] | other results
CCC1OC(=O)CC(O)C(C)C(OC2OC(C)C(O)C(N(C)C)C2O)C(CCN2C(=O)c3ccccc3C2=O)CC(C)C(=O)C=CC(C)=CC1CN1C(=O)c2ccccc2C1=O (stereo not shown) [Compound 31, 20,23-Di-N-Phthalimido-20,23-dideoxy-20-dihydro-OMT] | 4 µg/mL (≈ 4.66 µM) | 4 µg/mL (≈ 4.66 µM) | > 128 µg/mL | > 128 µg/mL | 16 µg/mL (≈ 18.6 µM) | 12.5 µg/mL (≈ 14.6 µM) | > 50 µg/mL | > 50 µg/mL | > 50 µg/mL | 50 µg/mL (≈ 58.3 µM) | 25 µg/mL (≈ 29.1 µM) | 12.5 µg/mL (≈ 14.6 µM) | > 128 µg/mL | 16 µg/mL (≈ 18.6 µM) | > 128 µg/mL | 4 µg/mL (≈ 4.66 µM) | > 128 µg/mL | 2 µg/mL (≈ 2.33 µM) | 4 µg/mL (≈ 4.66 µM) | – | MIC ([6]; broth-dilution microtiter, Pasteurella hemolytica 22C, read-out: MIC): > 50 µg/mL; MIC ([11]; broth-dilution microtiter, Pasteurella hemolytica 23C, read-out: MIC): > 50 µg/mL; MIC [12]: > 50 µg/mL; MIC (Mycoplasma gallisepticum): 12.5 µg/mL (≈ 14.6 µM); MIC [13]: 25 µg/mL (≈ 29.1 µM); MIC ([14]; broth-dilution microtiter, Pasteurella hemolytica 41D, read-out: MIC): > 50 µg/mL; MIC [15]: > 50 µg/mL; MIC [16, 28]: 8 µg/mL (≈ 9.32 µM); MIC [17, 29]: 16 µg/mL (≈ 18.6 µM); MIC [21, 32]: > 128 µg/mL
CCC1CC(C)C(=O)C=CC(C)=CC(COC(C)=O)C(CC)OC(=O)CC(O)C(C)C1OC1OC(C)C(OC(C)=O)C(N(C)C)C1OC(C)=O (stereo not shown) [Compound 40, 2',4',23-Tri-O-acetyl-20-deoxy-20-dihydro-OMT] | 4 µg/mL (≈ 5.63 µM) | 4 µg/mL (≈ 5.63 µM) | – | – | 16 µg/mL (≈ 22.5 µM) | 12.5 µg/mL (≈ 17.6 µM) | 12.5 µg/mL (≈ 17.6 µM) | 25 µg/mL (≈ 35.2 µM) | 25 µg/mL (≈ 35.2 µM) | 50 µg/mL (≈ 70.4 µM) | > 50 µg/mL | 6.25 µg/mL (≈ 8.8 µM) | > 128 µg/mL | 8 µg/mL (≈ 11.3 µM) | > 128 µg/mL | 4 µg/mL (≈ 5.63 µM) | > 128 µg/mL | 4 µg/mL (≈ 5.63 µM) | 4 µg/mL (≈ 5.63 µM) | 4 µg/mL (≈ 5.63 µM) | MIC ([6]; Pasteurella, 22C): 50 µg/mL (≈ 70.4 µM); MIC ([11]; Pasteurella, 23C): 50 µg/mL (≈ 70.4 µM); MIC [12]: 12.5 µg/mL (≈ 17.6 µM); MIC (Mycoplasma gallisepticum): 6.25 µg/mL (≈ 8.8 µM); MIC [13]: > 50 µg/mL; MIC ([14]; Pasteurella, 41D): 50 µg/mL (≈ 70.4 µM); MIC [15]: 25 µg/mL (≈ 35.2 µM); MIC [16, 28]: 8 µg/mL (≈ 11.3 µM); MIC [17, 29]: 16 µg/mL (≈ 22.5 µM); MIC [21, 32]: 16 µg/mL (≈ 22.5 µM)
CCC1OC(=O)CC(O)C(C)C(OC2OC(C)C(O)C(N(C)C)C2O)C(CCO)CC(C)C(=O)C=CC(C)=CC1COC(=O)CCc1ccccc1 (stereo not shown) [Compound 52, 20-Dihydro-23-O-phenylpropionyl-OMT] | 0.5 µg/mL (≈ 0.683 µM) | 0.5 µg/mL (≈ 0.683 µM) | 8 µg/mL (≈ 10.9 µM) | 8 µg/mL (≈ 10.9 µM) | – | – | – | – | – | – | – | – | – | 2 µg/mL (≈ 2.73 µM) | > 128 µg/mL | 0.5 µg/mL (≈ 0.683 µM) | 8 µg/mL (≈ 10.9 µM) | 0.25 µg/mL (≈ 0.342 µM) | 0.5 µg/mL (≈ 0.683 µM) | 0.5 µg/mL (≈ 0.683 µM) | MIC ([5]; Staphylococcus aureus, X400): 1 µg/mL (≈ 1.37 µM); MIC [16]: 1 µg/mL (≈ 1.37 µM); MIC ([17]; Streptococcus pyogenes, C203): 0.25 µg/mL (≈ 0.342 µM); MIC (Escherichia coli EC14; Escherichia coli, EC14): 64 µg/mL (≈ 87.4 µM); MIC ([21]; Klebsiella pneumoniae, X26): 4 µg/mL (≈ 5.47 µM)
CCC1OC(=O)CC(O)C(C)C(OC2OC(C)C(O)C(N(C)C)C2O)C(CCN(c2ccccc2)c2ccccc2)CC(C)C(=O)C=CC(C)=CC1CO (stereo not shown) [Compound 56, 20-Diphenylamino-20-deoxy-20-dihydro-OMT] | 2 µg/mL (≈ 2.66 µM) | 2 µg/mL (≈ 2.66 µM) | – | – | – | – | – | – | – | – | – | – | > 128 µg/mL | – | > 128 µg/mL | 4 µg/mL (≈ 5.33 µM) | > 128 µg/mL | 1 µg/mL (≈ 1.33 µM) | 2 µg/mL (≈ 2.66 µM) | 1 µg/mL (≈ 1.33 µM) | MIC ([3]; Haemophilus influenzae): 32 µg/mL (≈ 42.6 µM); MIC ([4]; Haemophilus influenzae, 76): 16 µg/mL (≈ 21.3 µM); MIC ([5]; Staphylococcus aureus, X400): 4 µg/mL (≈ 5.33 µM); MIC [16]: 4 µg/mL (≈ 5.33 µM); MIC ([17]; Streptococcus pyogenes, C203): 2 µg/mL (≈ 2.66 µM); MIC [18]; 9960: 8 µg/mL (≈ 10.7 µM)

— US4468511A, “C-20- And C-23-Modified macrolide derivatives” (Eli Lilly and Company, priority 1983, dated 1984)
